Reference: PubChem BioAssay AID1963858 (Molecular Pharmacology Branch, DTP, NCI, 2024)

Test system: HOP-62 multicell spheroids with HUVEC/MSC, viability
Test: Anticancer human tumor HOP-62 cell line growth inhibition [KRAS2];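 also: viability read after a week of compound exposure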;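 as to viability, T/C: 100% = DMSO vehicle-treated spheroids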
Details: for IC50: curve of first compound; for viability, T/C: stronger effect = lower value
Outline: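 KRAS-mutant tumor cells were grown as spheroids with HUVEC endothelial cells and human MSCs as stroma. Targeted agents were tested alone and with KRAS pathway inhibitors. Doses started at or near clinical Cmax, or 10 microM, descending half-log.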

[1] = second compound 0.1 µM, first compound 0.0316 µM
[2] = second compound 0.1 µM, first compound 0.1 µM
[3] = second compound 0.1 µM, first compound 0.316 µM
[4] = second compound 0.1 µM, first compound 1 µM
[5] = second compound 0.1 µM, first compound 3.16 µM
[6] = second compound 0.1 µM, first compound 10 µM
[7] = second compound 0.316 µM, first compound 0.0316 µM
[8] = second compound 0.316 µM, first compound 0.1 µM
[9] = second compound 0.316 µM, first compound 0.316 µM
[10] = second compound 0.316 µM, first compound 1 µM
[11] = second compound 0.316 µM, first compound 3.16 µM
[12] = second compound 0.316 µM, first compound 10 µM
[13] = second compound 1 µM, first compound 0.0316 µM
[14] = second compound 1 µM, first compound 0.1 µM
[15] = second compound 1 µM, first compound 0.316 µM
[16] = second compound 1 µM, first compound 1 µM
[17] = second compound 1 µM, first compound 3.16 µM
[18] = second compound 1 µM, first compound 10 µM
[19] = second compound 3.16 µM, first compound 0.0316 µM
[20] = second compound 3.16 µM, first compound 0.1 µM
[21] = second compound 3.16 µM, first compound 0.316 µM
[22] = second compound 3.16 µM, first compound 1 µM
[23] = second compound 3.16 µM, first compound 3.16 µM
[24] = second compound 3.16 µM, first compound 10 µM
[25] = second compound 10 µM, first compound 0.0316 µM
[26] = second compound 10 µM, first compound 0.1 µM
[27] = second compound 10 µM, first compound 0.316 µM
[28] = second compound 10 µM, first compound 1 µM
[29] = second compound 10 µM, first compound 3.16 µM
[30] = second compound 10 µM, first compound 10 µM

CC(C)NCC(C(=O)N1CCN(c2ncnc3c2C(C)CC3O)CC1)c1ccc(Cl)cc1 (stereo not given) + C=CC(=O)N1CCN(c2nc(=O)n(-c3c(C)ccnc3C(C)C)c3nc(-c4c(O)cccc4F)c(F)cc23)C(C)C1
IC50 (second compound 0.1 µM): 69.2 nM | IC50 (second compound 0.316 µM): 70 nM | IC50 (second compound 1 µM): 88.9 nM | IC50 (second compound 3.16 µM): 110 nM | IC50 (second compound 10 µM): < 31.6 nM | viability, T/C [1]: 60.9% | viability, T/C [2]: 45.3% | viability, T/C [3]: 22.2% | viability, T/C [4]: 12.4% | viability, T/C [5]: 7.1% | viability, T/C [6]: 5.4% | viability, T/C [7]: 53.8% | viability, T/C [8]: 49.1% | viability, T/C [9]: 28.2% | viability, T/C [10]: 12.9% | viability, T/C [11]: 6.09% | viability, T/C [12]: 5.39% | viability, T/C [13]: 57.2% | viability, T/C [14]: 49.6% | viability, T/C [15]: 27.2% | viability, T/C [16]: 11.8% | viability, T/C [17]: 6.8% | viability, T/C [18]: 5.57% | viability, T/C [19]: 55.7% | viability, T/C [20]: 51% | viability, T/C [21]: 36.3% | viability, T/C [22]: 15.1% | viability, T/C [23]: 7.34% | viability, T/C [24]: 4.5% | viability, T/C [25]: 43.3% | viability, T/C [26]: 28.1% | viability, T/C [27]: 19.5% | viability, T/C [28]: 12.8% | viability, T/C [29]: 8.3% | viability, T/C [30]: 5.28%

COc1cc(Nc2ncc3c(n2)-c2ccc(Cl)cc2C(c2c(F)cccc2OC)=NC3)ccc1C(=O)O + CC1OCC2(CCN(c3cnc(Sc4ccnc(N)c4Cl)c(N)n3)CC2)C1N
IC50 (second compound 0.1 µM): 183 nM | IC50 (second compound 0.316 µM): 72.8 nM | IC50 (second compound 1 µM): < 31.6 nM | IC50 (second compound 3.16 µM): < 31.6 nM | IC50 (second compound 10 µM): < 31.6 nM | viability, T/C [1]: 61.5% | viability, T/C [2]: 53.9% | viability, T/C [3]: 45.7% | viability, T/C [4]: 39% | viability, T/C [5]: 26.9% | viability, T/C [6]: 20.1% | viability, T/C [7]: 56% | viability, T/C [8]: 47.8% | viability, T/C [9]: 38.5% | viability, T/C [10]: 31.3% | viability, T/C [11]: 22% | viability, T/C [12]: 16.3% | viability, T/C [13]: 34.6% | viability, T/C [14]: 29.7% | viability, T/C [15]: 27.1% | viability, T/C [16]: 26.1% | viability, T/C [17]: 21.1% | viability, T/C [18]: 15.4% | viability, T/C [19]: 21.9% | viability, T/C [20]: 18.9% | viability, T/C [21]: 22.2% | viability, T/C [22]: 21.7% | viability, T/C [23]: 14.7% | viability, T/C [24]: 11.4% | viability, T/C [25]: 22.7% | viability, T/C [26]: 17.1% | viability, T/C [27]: 18.4% | viability, T/C [28]: 17.4% | viability, T/C [29]: 16.2% | viability, T/C [30]: 10.7%
